# Measurements from the Kinase Knowledgebase extract (Sharma et al. 2016).
# What was measured:
# PIK3CG (human) = PIK3CG (human) (UniProt P48736); experiment: Inhibition of PIK3CG Kinase Activity
# PIK3CA (human) = PIK3CA (human) (UniProt P42336); experiment: Inhibition of PIK3CA Kinase Activity
# PIK3CD (Human) = PIK3CD (Human) (UniProt O00329); experiment: Inhibition of PIK3CD Kinase Activity
# PIK3CB (Human) = PIK3CB (Human) (UniProt P42338); experiment: Inhibition of PIK3CB Kinase Activity
# Sequence of PIK3CB (Human) (P42338 whole entry, looked up): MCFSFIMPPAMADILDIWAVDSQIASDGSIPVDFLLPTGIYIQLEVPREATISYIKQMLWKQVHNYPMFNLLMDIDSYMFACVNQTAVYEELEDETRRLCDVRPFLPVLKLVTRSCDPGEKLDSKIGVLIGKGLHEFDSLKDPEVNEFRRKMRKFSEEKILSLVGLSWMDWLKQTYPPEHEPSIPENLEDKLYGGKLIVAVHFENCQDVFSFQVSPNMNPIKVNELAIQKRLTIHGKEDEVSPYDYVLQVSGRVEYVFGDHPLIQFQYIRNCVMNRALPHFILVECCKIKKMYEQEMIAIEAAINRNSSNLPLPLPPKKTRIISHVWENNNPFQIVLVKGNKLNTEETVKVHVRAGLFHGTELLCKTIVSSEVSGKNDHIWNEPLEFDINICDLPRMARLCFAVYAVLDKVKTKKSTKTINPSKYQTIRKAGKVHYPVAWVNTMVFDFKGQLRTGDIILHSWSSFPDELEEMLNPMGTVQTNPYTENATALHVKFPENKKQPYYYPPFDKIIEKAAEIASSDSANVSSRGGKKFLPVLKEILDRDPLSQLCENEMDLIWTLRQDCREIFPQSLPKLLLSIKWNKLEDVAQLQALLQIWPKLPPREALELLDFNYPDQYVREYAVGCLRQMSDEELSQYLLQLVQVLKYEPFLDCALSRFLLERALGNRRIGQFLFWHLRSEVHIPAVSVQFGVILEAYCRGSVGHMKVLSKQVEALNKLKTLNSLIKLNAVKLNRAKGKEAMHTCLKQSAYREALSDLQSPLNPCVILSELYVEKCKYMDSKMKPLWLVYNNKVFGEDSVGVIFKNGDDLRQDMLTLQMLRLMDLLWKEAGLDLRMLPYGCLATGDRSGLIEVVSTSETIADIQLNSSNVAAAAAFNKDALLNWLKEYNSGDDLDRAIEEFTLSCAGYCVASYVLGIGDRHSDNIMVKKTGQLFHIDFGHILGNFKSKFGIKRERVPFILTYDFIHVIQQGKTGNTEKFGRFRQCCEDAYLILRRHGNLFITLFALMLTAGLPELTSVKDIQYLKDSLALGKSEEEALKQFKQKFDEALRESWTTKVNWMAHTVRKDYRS
# Sequence of PIK3CD (Human) (O00329 whole entry, looked up): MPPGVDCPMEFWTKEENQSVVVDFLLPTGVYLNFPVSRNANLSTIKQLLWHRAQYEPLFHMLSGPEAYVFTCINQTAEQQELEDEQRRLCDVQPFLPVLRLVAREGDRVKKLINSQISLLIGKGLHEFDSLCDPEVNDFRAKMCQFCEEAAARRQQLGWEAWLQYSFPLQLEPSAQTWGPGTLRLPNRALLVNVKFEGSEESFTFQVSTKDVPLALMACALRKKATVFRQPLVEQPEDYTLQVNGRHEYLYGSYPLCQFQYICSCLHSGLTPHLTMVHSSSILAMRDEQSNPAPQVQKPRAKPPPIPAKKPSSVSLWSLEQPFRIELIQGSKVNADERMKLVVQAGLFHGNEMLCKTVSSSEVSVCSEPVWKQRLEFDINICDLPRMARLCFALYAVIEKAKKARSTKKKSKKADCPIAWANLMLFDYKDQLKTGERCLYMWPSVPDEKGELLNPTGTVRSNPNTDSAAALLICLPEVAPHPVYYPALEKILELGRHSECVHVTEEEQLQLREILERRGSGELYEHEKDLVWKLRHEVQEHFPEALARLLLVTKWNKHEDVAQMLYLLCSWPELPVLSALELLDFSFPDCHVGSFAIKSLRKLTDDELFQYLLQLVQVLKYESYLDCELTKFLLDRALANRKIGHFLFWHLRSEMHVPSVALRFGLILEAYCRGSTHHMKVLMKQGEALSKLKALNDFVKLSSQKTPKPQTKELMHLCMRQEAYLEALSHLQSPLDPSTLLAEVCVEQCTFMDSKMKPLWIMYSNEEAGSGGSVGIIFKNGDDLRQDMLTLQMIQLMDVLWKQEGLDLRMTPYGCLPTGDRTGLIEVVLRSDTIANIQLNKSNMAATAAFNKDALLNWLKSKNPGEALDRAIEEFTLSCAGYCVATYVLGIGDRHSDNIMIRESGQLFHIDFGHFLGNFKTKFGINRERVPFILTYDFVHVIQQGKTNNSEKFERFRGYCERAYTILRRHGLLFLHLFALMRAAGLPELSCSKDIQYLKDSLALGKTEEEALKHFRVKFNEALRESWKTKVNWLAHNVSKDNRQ
# Sequence of PIK3CG (human) (P48736 whole entry, looked up): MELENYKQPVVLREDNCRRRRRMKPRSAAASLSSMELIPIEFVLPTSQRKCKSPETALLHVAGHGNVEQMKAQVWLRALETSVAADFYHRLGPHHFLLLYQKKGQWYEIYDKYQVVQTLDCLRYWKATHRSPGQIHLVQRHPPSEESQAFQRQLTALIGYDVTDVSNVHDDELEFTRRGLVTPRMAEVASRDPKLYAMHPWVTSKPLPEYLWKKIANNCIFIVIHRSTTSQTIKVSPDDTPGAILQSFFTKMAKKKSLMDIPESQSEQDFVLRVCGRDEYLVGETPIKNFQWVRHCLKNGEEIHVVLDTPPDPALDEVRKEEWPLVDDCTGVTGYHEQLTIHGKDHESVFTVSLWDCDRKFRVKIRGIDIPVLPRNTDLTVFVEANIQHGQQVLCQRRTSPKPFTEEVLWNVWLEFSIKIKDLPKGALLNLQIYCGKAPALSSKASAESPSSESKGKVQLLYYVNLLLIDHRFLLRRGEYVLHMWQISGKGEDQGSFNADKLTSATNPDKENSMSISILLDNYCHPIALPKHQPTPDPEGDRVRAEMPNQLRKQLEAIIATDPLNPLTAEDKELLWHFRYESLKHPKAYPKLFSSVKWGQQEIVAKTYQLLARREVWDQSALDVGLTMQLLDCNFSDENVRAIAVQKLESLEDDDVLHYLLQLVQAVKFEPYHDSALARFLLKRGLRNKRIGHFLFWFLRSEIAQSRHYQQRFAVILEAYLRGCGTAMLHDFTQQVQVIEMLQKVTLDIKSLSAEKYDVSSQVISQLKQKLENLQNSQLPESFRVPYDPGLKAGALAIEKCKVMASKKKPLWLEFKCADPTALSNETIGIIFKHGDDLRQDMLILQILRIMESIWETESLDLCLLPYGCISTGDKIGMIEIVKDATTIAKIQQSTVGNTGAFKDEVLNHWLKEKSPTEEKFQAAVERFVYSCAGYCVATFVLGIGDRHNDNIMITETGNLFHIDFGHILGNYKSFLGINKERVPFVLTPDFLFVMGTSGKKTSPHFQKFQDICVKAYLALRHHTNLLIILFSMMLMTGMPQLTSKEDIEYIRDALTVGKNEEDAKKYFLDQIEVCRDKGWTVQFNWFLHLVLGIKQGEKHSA
# Sequence of PIK3CA (human) (P42336 whole entry, looked up): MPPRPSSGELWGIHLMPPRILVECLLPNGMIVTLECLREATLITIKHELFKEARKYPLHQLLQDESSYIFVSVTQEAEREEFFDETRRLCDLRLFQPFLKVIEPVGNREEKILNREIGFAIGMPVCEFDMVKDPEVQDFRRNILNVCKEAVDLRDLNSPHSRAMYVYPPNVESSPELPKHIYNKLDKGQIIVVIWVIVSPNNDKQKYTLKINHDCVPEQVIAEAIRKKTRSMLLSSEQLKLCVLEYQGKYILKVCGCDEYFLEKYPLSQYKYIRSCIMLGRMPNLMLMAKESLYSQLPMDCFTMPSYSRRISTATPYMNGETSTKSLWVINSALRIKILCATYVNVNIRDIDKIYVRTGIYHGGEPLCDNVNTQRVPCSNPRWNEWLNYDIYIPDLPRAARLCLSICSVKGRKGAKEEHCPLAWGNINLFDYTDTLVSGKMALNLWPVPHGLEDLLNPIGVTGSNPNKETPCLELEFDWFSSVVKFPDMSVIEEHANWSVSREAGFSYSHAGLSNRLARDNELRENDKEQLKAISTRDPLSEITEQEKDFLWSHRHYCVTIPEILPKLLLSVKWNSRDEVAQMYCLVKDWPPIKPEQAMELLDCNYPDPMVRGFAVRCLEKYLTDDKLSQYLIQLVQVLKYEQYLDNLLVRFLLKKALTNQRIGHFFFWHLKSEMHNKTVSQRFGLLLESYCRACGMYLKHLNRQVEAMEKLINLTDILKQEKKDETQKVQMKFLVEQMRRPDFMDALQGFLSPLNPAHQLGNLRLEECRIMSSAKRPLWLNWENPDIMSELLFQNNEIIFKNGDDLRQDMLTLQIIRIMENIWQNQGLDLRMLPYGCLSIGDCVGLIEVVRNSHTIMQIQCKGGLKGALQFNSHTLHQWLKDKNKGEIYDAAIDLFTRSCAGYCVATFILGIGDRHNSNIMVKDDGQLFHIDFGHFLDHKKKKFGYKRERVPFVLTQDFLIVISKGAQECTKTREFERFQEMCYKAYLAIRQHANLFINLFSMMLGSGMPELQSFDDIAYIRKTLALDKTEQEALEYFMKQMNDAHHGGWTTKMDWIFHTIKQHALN
SMILES,IC50 (PIK3CG (human)),IC50 (PIK3CA (human)),IC50 (PIK3CD (Human)),IC50 (PIK3CB (Human))
CC(=O)Nc1nc2ccc(-c3cccc(S(=O)(=O)NCCCO)c3)cc2s1,< 1000 nM,< 1000 nM,< 1000 nM,
CC(=O)Nc1nc2ccc(-c3ccncc3)cc2s1,< 1000 nM,,,
CC(=O)Nc1nc2ccc(-c3cccc(NS(=O)(=O)N(C)C)c3)cc2s1,< 1000 nM,,,
CC(=O)Nc1nc2ccc(-c3cccc(S(=O)(=O)N4CCN(C)C(=O)C4)c3)cc2s1,,< 1000 nM,,
CC(=O)Nc1nc2ccc(-c3cccc(C(N)=O)c3)cc2s1,< 1000 nM,,,
COc1cc(-c2ccc3nc(NC(C)=O)sc3c2)ccc1O,< 1000 nM,< 1000 nM,< 1000 nM,< 1000 nM
CC(=O)Nc1nc2ccc(-c3ccc(C)c(S(C)(=O)=O)c3)cc2s1,,,< 1000 nM,
CS(=O)(=O)c1cccc(-c2ccc3nc(NC=O)sc3c2)c1,,,,> 20000 nM
CC(=O)Nc1nc2ccc(-c3cc(C(F)(F)F)cc(S(=O)(=O)NCCO)c3)cc2s1,,> 20000 nM,,
CS(=O)(=O)c1cccc(-c2ccc3nc(NC(=O)C(=O)N4CCCC4)sc3c2)c1,,,< 1000 nM,
CN(C)C(=O)CNC(=O)Nc1nc2ccc(-c3cccc(S(C)(=O)=O)c3)cc2s1,< 1000 nM,< 1000 nM,< 1000 nM,
CC(=O)Nc1nc2ccc(-c3cccc(C(=O)NCCO)c3)cc2s1,,,,> 20000 nM
CC(=O)Nc1nc2ccc(-c3cccc(S(=O)(=O)N(CCO)CCO)c3)cc2s1,< 1000 nM,< 1000 nM,< 1000 nM,
CC(=O)Nc1nc2ccc(-c3cccc(S(C)(=O)=O)c3)cc2s1,< 1000 nM,< 1000 nM,< 1000 nM,
CS(=O)(=O)c1cccc(-c2ccc3nc(NC(=O)NCCc4noc(-c5ccccc5)n4)sc3c2)c1,> 20000 nM,,,
CC(=O)Nc1nc2ccc(-c3cncc(S(=O)(=O)N(C)C)c3)cc2s1,< 1000 nM,< 1000 nM,< 1000 nM,< 1000 nM
CC(=O)Nc1nc2ccc(-c3cccc(S(=O)(=O)NC4CCCNC4)c3)cc2s1 (centres undefined),< 1000 nM,< 1000 nM,< 1000 nM,
COCCNS(=O)(=O)c1cccc(-c2ccc3nc(NC(C)=O)sc3c2)c1,< 1000 nM,< 1000 nM,< 1000 nM,
CC(=O)Nc1nc2ccc(-c3cccc(S(=O)(=O)CCCO)c3)cc2s1,,< 1000 nM,< 1000 nM,
CC(=O)Nc1nc2ccc(-c3cccc(S(=O)(=O)NCCN4CCOCC4)c3)cc2s1,< 1000 nM,< 1000 nM,< 1000 nM,
CC(=O)Nc1nc2ccc(-c3cccc(S(=O)(=O)N4CCCC(O)C4)c3)cc2s1 (centres undefined),< 1000 nM,< 1000 nM,< 1000 nM,
CC(=O)Nc1cn2nc(-c3cccc(S(C)(=O)=O)c3)ccc2n1,< 1000 nM,< 1000 nM,< 1000 nM,

SMILES,IC50 (PIK3CG (human)),IC50 (PIK3CA (human)),IC50 (PIK3CD (Human)),IC50 (PIK3CB (Human))
CC(=O)Nc1nc2ccc(-c3cccc(S(=O)(=O)CCO)c3)cc2s1,< 1000 nM,,< 1000 nM,
CS(=O)(=O)c1cccc(-c2ccc3nc(NC(=O)NCC(=O)N4CCOCC4)sc3c2)c1,< 1000 nM,< 1000 nM,< 1000 nM,
CC(=O)Nc1nc2ccc(-c3cccc(S(=O)(=O)NC(CO)CO)c3)cc2s1,< 1000 nM,< 1000 nM,< 1000 nM,
CC(=O)Nc1nc2ccc(-c3ccc(O)c(F)c3)cc2s1,< 1000 nM,,,
COc1cccc(-c2ccc3nc(NC(C)=O)sc3c2)c1,,,> 20000 nM,
COc1cc(-c2ccc3nc(NC(C)=O)cn3n2)ccc1O,< 1000 nM,< 1000 nM,< 1000 nM,< 1000 nM
CC(=O)Nc1nc2ccc(-c3cccc(S(=O)(=O)N4CCCC(NC(=O)OC(C)(C)C)C4)c3)cc2s1 (centres undefined),,< 1000 nM,,
COc1cc(-c2ccc3nc(NC(=O)NCCC(=O)OC(C)(C)C)sc3c2)ccc1O,< 1000 nM,,,
CN(C)S(=O)(=O)c1cccc(-c2ccc3nc(NC(=O)NCCC(=O)OC(C)(C)C)sc3c2)c1,< 1000 nM,> 20000 nM,,< 1000 nM
CC(=S)Nc1cn2nc(-c3cccc(S(C)(=O)=O)c3)ccc2n1,< 1000 nM,< 1000 nM,< 1000 nM,
CC(=O)Nc1nc2ccc(-c3cccc(S(=O)(=O)NCC(O)CO)c3)cc2s1 (centres undefined),< 1000 nM,< 1000 nM,< 1000 nM,
COC(=O)c1cccc(-c2ccc3nc(NC(C)=O)sc3c2)c1,> 20000 nM,,,
CC(=O)Nc1nc2ccc(-c3cccc(S(=O)(=O)NC4CCCOC4)c3)cc2s1 (centres undefined),< 1000 nM,< 1000 nM,< 1000 nM,
CC(=O)Nc1nc2ccc(-c3cccc(S(N)(=O)=O)c3)cc2s1,< 1000 nM,< 1000 nM,< 1000 nM,
CS(=O)(=O)c1cccc(-c2ccc3nc(NC(=O)NCCC(=O)N4CCCC4)sc3c2)c1,< 1000 nM,,< 1000 nM,< 1000 nM
CC(=O)Nc1nc2ccc(-c3cccc(S(=O)(=O)N4CCC(O)CC4)c3)cc2s1,< 1000 nM,< 1000 nM,< 1000 nM,
CC(C)(C)OC(=O)CCNC(=O)Nc1nc2ccc(-c3cccc(S(C)(=O)=O)c3)cc2s1,< 1000 nM,> 20000 nM,> 20000 nM,< 1000 nM
CC(C)c1noc(CCNC(=O)Nc2nc3ccc(-c4cccc(S(=O)(=O)N(C)C)c4)cc3s2)n1,,> 20000 nM,,
COc1cc(-c2ccc3nc(NC(=O)NCC(=O)N4CCOCC4)sc3c2)ccc1O,< 1000 nM,< 1000 nM,< 1000 nM,< 1000 nM
CCOC(=O)CCNC(=O)Nc1nc2ccc(-c3cccc(S(C)(=O)=O)c3)cc2s1,< 1000 nM,,,< 1000 nM
CC(=O)Nc1nc2ccc(-c3cccc(S(=O)(=O)N(C)C)c3)cc2s1,< 1000 nM,< 1000 nM,,
CC(=O)Nc1nc2ccc(-c3cccc(S(=O)(=O)NCCO)c3)cc2s1,< 1000 nM,< 1000 nM,< 1000 nM,< 1000 nM

SMILES,IC50 (PIK3CG (human)),IC50 (PIK3CA (human)),IC50 (PIK3CD (Human)),IC50 (PIK3CB (Human))
CC(=O)Nc1nc2ccc(-c3cccc(NS(C)(=O)=O)c3)cc2s1,< 1000 nM,< 1000 nM,< 1000 nM,
CC(C)n1nnc(CCNC(=O)Nc2nc3ccc(-c4cccc(S(C)(=O)=O)c4)cc3s2)n1,< 1000 nM,,,
CC(=O)Nc1nc2ccc(-c3cccc(S(=O)(=O)N4CCOCC4)c3)cc2s1,< 1000 nM,< 1000 nM,,
CC(=O)Nc1nc2ccc(-c3cccc(S(=O)(=O)N4CCCC(N)C4)c3)cc2s1 (centres undefined),< 1000 nM,< 1000 nM,< 1000 nM,< 1000 nM
CC(C)c1noc(CCNC(=O)Nc2nc3ccc(-c4cccc(S(=O)(=O)NCCO)c4)cc3s2)n1,< 1000 nM,,,< 1000 nM
CC(=O)Nc1nc2ccc(-c3cncc(S(N)(=O)=O)c3)cc2s1,< 1000 nM,< 1000 nM,< 1000 nM,< 1000 nM
CC(=O)Nc1nc2ccc(-c3cccc(S(=O)(=O)NC4CCCN(C(=O)OC(C)(C)C)C4)c3)cc2s1 (centres undefined),,< 1000 nM,,
CC(C)(C)OCCCNC(=O)Nc1nc2ccc(-c3cccc(S(C)(=O)=O)c3)cc2s1,,> 20000 nM,> 20000 nM,
COc1cc(-c2ccc3nc(NC(=O)NCCc4nc(C(C)C)no4)sc3c2)ccc1O,,,,< 1000 nM
CC(C)(C)OC(=O)CCNC(=O)Nc1nc2ccc(-c3cccc(S(=O)(=O)NCCO)c3)cc2s1,< 1000 nM,,,< 1000 nM
CC(=O)Nc1cn2nc(-c3cccc(S(=O)(=O)NCCO)c3)ccc2n1,< 1000 nM,< 1000 nM,< 1000 nM,
CC(=O)Nc1nc2ccc(-c3cccc(S(=O)(=O)N(C)CCO)c3)cc2s1,< 1000 nM,< 1000 nM,< 1000 nM,< 1000 nM
CCNS(=O)(=O)c1cccc(-c2ccc3nc(NC(C)=O)sc3c2)c1,< 1000 nM,< 1000 nM,< 1000 nM,
CS(=O)(=O)c1cccc(-c2ccc3nc(NC(=O)NCCC(=O)N4CCOCC4)sc3c2)c1,< 1000 nM,,,< 1000 nM
CCC(=O)Nc1nc2ccc(-c3cccc(S(C)(=O)=O)c3)cc2s1,,,< 1000 nM,
CS(=O)(=O)c1cccc(-c2ccc3nc(NC(=O)c4ccco4)sc3c2)c1,,> 20000 nM,> 20000 nM,
CC(=O)Nc1nc2ccc(-c3ccc(Cl)c(S(=O)(=O)NCCO)c3)cc2s1,< 1000 nM,< 1000 nM,< 1000 nM,
CC(=O)Nc1nc2ccc(-c3cccc(S(C)(=O)=O)n3)cc2s1,,< 1000 nM,< 1000 nM,> 20000 nM
CC(C)n1cnc(CCNC(=O)Nc2nc3ccc(-c4cccc(S(C)(=O)=O)c4)cc3s2)c1,< 1000 nM,,,< 1000 nM
CC(=O)Nc1cn2cc(-c3cccc(S(C)(=O)=O)c3)ccc2n1,,< 1000 nM,< 1000 nM,
